According to ChEMBL document CHEMBL4004838, “Design and synthesis of novel phenyl -1, 4-beta-carboline-hybrid molecules as potential anticancer agents” (Eur J Med Chem, 2017):

What was measured:
Type in all cases: functional
Malme-3M = assay: Growth inhibition of human MALME-3M cells assessed as cell growth at 10^-5 M incubated for 48 hrs by sulforhodamine B assay relative to control; settings: read-out: Activity
UACC-257 = assay: Growth inhibition of human UACC257 cells assessed as cell growth at 10^-5 M incubated for 48 hrs by sulforhodamine B assay relative to control; settings: UACC-257, 48 h, read-out: Activity
IGROV-1 = assay: Growth inhibition of human IGROV1 cells assessed as cell growth at 10^-5 M incubated for 48 hrs by sulforhodamine B assay relative to control; settings: IGROV-1, 48 h, read-out: Activity
786-0 = assay: Growth inhibition of human 786-0 cells assessed as cell growth at 10^-5 M incubated for 48 hrs by sulforhodamine B assay relative to control; settings: 786-0, 48 h, read-out: Activity
COLO 205 = assay: Growth inhibition of human COLO205 cells assessed as cell growth at 10^-5 M incubated for 48 hrs by sulforhodamine B assay relative to control; settings: COLO 205, 48 h, read-out: Activity
SW-620 = assay: Growth inhibition of human SW620 cells assessed as cell growth at 10^-5 M incubated for 48 hrs by sulforhodamine B assay relative to control; settings: SW-620, 48 h, read-out: Activity
BT-549 = assay: Growth inhibition of human BT549 cells assessed as cell growth at 10^-5 M incubated for 48 hrs by sulforhodamine B assay relative to control; settings: BT-549, 48 h, read-out: Activity
HCT-116 = assay: Growth inhibition of human HCT116 cells assessed as cell growth at 10^-5 M incubated for 48 hrs by sulforhodamine B assay relative to control; settings: HCT-116, 48 h, read-out: Activity
A498 = assay: Growth inhibition of human A498 cells assessed as cell growth at 10^-5 M incubated for 48 hrs by sulforhodamine B assay relative to control; settings: A498, 48 h, read-out: Activity
SNB-19 [1] = assay: Growth inhibition of human SNB19 cells assessed as cell growth at 10^-5 M incubated for 48 hrs by sulforhodamine B assay relative to control; settings: SNB-19, 48 h, read-out: Activity
SNB-75 = assay: Growth inhibition of human SNB75 cells assessed as cell growth at 10^-5 M incubated for 48 hrs by sulforhodamine B assay relative to control; settings: SNB-75, 48 h, read-out: Activity
NCI-H322M = assay: Growth inhibition of human NCI-H322M cells assessed as cell growth at 10^-5 M incubated for 48 hrs by sulforhodamine B assay relative to control; settings: read-out: Activity
CAKI-1 = assay: Growth inhibition of human Caki1 cells assessed as cell growth at 10^-5 M incubated for 48 hrs by sulforhodamine B assay relative to control; settings: CAKI-1, 48 h, read-out: Activity
OVCAR-8 = assay: Growth inhibition of human OVCAR8 cells assessed as cell growth at 10^-5 M incubated for 48 hrs by sulforhodamine B assay relative to control; settings: OVCAR-8, 48 h, read-out: Activity
NCI/ADR-RES = assay: Growth inhibition of human NCI-ADR-RES cells assessed as cell growth at 10^-5 M incubated for 48 hrs by sulforhodamine B assay relative to control; settings: read-out: Activity
MDA-MB-435 = assay: Growth inhibition of human MDA-MB-435 cells assessed as cell growth at 10^-5 M incubated for 48 hrs by sulforhodamine B assay relative to control; settings: MDA-MB-435, 48 h, read-out: Activity
MOLT-4 = assay: Growth inhibition of human MOLT4 cells assessed as cell growth at 10^-5 M incubated for 48 hrs by sulforhodamine B assay relative to control; settings: MOLT-4, 48 h, read-out: Activity
HT-29 = assay: Growth inhibition of human HT-29 cells assessed as cell growth at 10^-5 M incubated for 48 hrs by sulforhodamine B assay relative to control; settings: HT-29, 48 h, read-out: Activity
RPMI-8226 = assay: Growth inhibition of human RPMI8226 cells assessed as cell growth at 10^-5 M incubated for 48 hrs by sulforhodamine B assay relative to control; settings: RPMI-8226, 48 h, read-out: Activity
ACHN = assay: Growth inhibition of human ACHN cells assessed as cell growth at 10^-5 M incubated for 48 hrs by sulforhodamine B assay relative to control; settings: read-out: Activity
KM12 = assay: Growth inhibition of human KM12 cells assessed as cell growth at 10^-5 M incubated for 48 hrs by sulforhodamine B assay relative to control; settings: KM12, 48 h, read-out: Activity
NCI-H522 = assay: Growth inhibition of human NCI-H522 cells assessed as cell growth at 10^-5 M incubated for 48 hrs by sulforhodamine B assay relative to control; settings: NCI-H522, 48 h, read-out: Activity
M14 = assay: Growth inhibition of human M14 cells assessed as cell growth at 10^-5 M incubated for 48 hrs by sulforhodamine B assay relative to control; settings: M14, 48 h, read-out: Activity
U-251 = assay: Growth inhibition of human U251 cells assessed as cell growth at 10^-5 M incubated for 48 hrs by sulforhodamine B assay relative to control; settings: U-251, 48 h, read-out: Activity
HCT-15 = assay: Growth inhibition of human HCT15 cells assessed as cell growth at 10^-5 M incubated for 48 hrs by sulforhodamine B assay relative to control; settings: HCT-15, 48 h, read-out: Activity
SN12C = assay: Growth inhibition of human SN12C cells assessed as cell growth at 10^-5 M incubated for 48 hrs by sulforhodamine B assay relative to control; settings: read-out: Activity
MDA-MB-468 = assay: Growth inhibition of human MDA-MB-468 cells assessed as cell growth at 10^-5 M incubated for 48 hrs by sulforhodamine B assay relative to control; settings: MDA-MB-468, 48 h, read-out: Activity
PC-3 = assay: Growth inhibition of human PC3 cells assessed as cell growth at 10^-5 M incubated for 48 hrs by sulforhodamine B assay relative to control; settings: PC-3, 48 h, read-out: Activity
SNB-19 [2] = assay: Growth inhibition of human SNB19 cells assessed as cell growth at 0.1 uM incubated for 48 hrs by sulforhodamine B assay relative to control; settings: SNB-19, 48 h, read-out: Activity
Hs-578T = assay: Growth inhibition of human Hs 578T cells incubated for 48 hrs by sulforhodamine B assay
CCRF-CEM = assay: Growth inhibition of human CCRF-CEM cells assessed as cell growth at 100 uM incubated for 48 hrs by sulforhodamine B assay relative to control; settings: read-out: Activity
OVCAR-3 = assay: Growth inhibition of human OVCAR3 cells assessed as cell growth at 0.01 uM incubated for 48 hrs by sulforhodamine B assay relative to control; settings: OVCAR-3, 48 h, read-out: Activity

Cc1ccc(S(=O)(=O)N2CCc3c([nH]c4ccccc34)C2c2ccc(-c3nc4ccccc4[nH]3)cc2)cc1 (centres undefined)
growth at 10 µM (Malme-3M): 89.7%
growth at 10 µM (UACC-257): 102%
growth at 10 µM (IGROV-1): 86.5%
growth at 10 µM (786-0): 99.6%
growth at 10 µM (COLO 205): 92.1%
growth at 10 µM (SW-620): 90.1%
growth at 10 µM (BT-549): 77.1%
growth at 10 µM (HCT-116): 88.3%
growth at 10 µM (A498): 84.6%
growth at 10 µM (SNB-19 [1]): 91.3%
growth at 10 µM (SNB-75): 74%
growth at 10 µM (NCI-H322M): 87.7%
growth at 10 µM (CAKI-1): 73.5%
growth at 10 µM (OVCAR-8): 98.2%
growth at 10 µM (NCI/ADR-RES): 88.9%
growth at 10 µM (MDA-MB-435): 93.4%
growth at 10 µM (MOLT-4): 95.9%
growth at 10 µM (HT-29): 87.2%
growth at 10 µM (RPMI-8226): 99.1%
growth at 10 µM (ACHN): 79.1%
growth at 10 µM (KM12): 86.8%
growth at 10 µM (NCI-H522): 60.3%
growth at 10 µM (M14): 85.8%
growth at 10 µM (U-251): 98%
growth at 10 µM (HCT-15): 94.3%
growth at 10 µM (SN12C): 87.7%
growth at 10 µM (MDA-MB-468): 102%
growth at 10 µM (PC-3): 84.2%

Cc1ccc(S(=O)(=O)N2CCc3c([nH]c4ccccc34)C2c2ccc(C=O)cc2)cc1 (centres undefined)
growth at 10 µM (Malme-3M): 89.7%
growth at 10 µM (UACC-257): 102%
growth at 10 µM (IGROV-1): 86.5%
growth at 10 µM (786-0): 99.6%
growth at 10 µM (COLO 205): 92.1%
growth at 10 µM (SW-620): 90.1%
growth at 10 µM (BT-549): 77.1%
growth at 10 µM (HCT-116): 88.3%
growth at 10 µM (A498): 84.6%
growth at 10 µM (SNB-19 [1]): 91.3%
growth at 10 µM (SNB-75): 74%
growth at 10 µM (NCI-H322M): 87.7%
growth at 10 µM (CAKI-1): 73.5%
growth at 10 µM (OVCAR-8): 98.2%
growth at 10 µM (NCI/ADR-RES): 88.9%
growth at 10 µM (MDA-MB-435): 93.4%
growth at 10 µM (MOLT-4): 95.9%
growth at 10 µM (HT-29): 87.2%
growth at 10 µM (RPMI-8226): 99.1%
growth at 10 µM (ACHN): 79.1%
growth at 10 µM (KM12): 86.8%
growth at 10 µM (NCI-H522): 60.3%
growth at 10 µM (M14): 85.8%
growth at 10 µM (U-251): 98%
growth at 10 µM (HCT-15): 94.3%
growth at 10 µM (SN12C): 87.7%
growth at 10 µM (MDA-MB-468): 102%
growth at 10 µM (PC-3): 84.2%

Cc1n[nH]c2c1C(c1ccc(C3NCCc4c3[nH]c3ccccc43)cc1)C(C#N)=C(N)O2 (centres undefined)
growth at 10 µM (Malme-3M): 77%
growth at 10 µM (786-0): 97.4%
growth at 10 µM (COLO 205): 92.4%
growth at 10 µM (SW-620): 89.9%
growth at 10 µM (BT-549): 81.8%
growth at 10 µM (HCT-116): 76.5%
growth at 10 µM (A498): 67.1%
growth at 10 µM (SNB-19 [1]): 94.2%
growth at 10 µM (SNB-75): 70.4%
growth at 10 µM (NCI-H322M): 97.7%
growth at 10 µM (CAKI-1): 63.2%
growth at 10 µM (OVCAR-8): 104%
growth at 10 µM (NCI/ADR-RES): 96.3%
growth at 10 µM (MDA-MB-435): 96.3%
growth at 10 µM (MOLT-4): 81.1%
growth at 10 µM (HT-29): 91.7%
growth at 10 µM (RPMI-8226): 72.1%
growth at 10 µM (ACHN): 83.5%
growth at 10 µM (KM12): 91.9%
growth at 10 µM (NCI-H522): 81.8%
growth at 10 µM (M14): 86.7%
growth at 10 µM (U-251): 87.5%
growth at 10 µM (HCT-15): 87.7%
growth at 10 µM (SN12C): 87%
growth at 10 µM (MDA-MB-468): 92.7%
growth at 10 µM (PC-3): 72.3%

c1ccc2c3c([nH]c2c1)C(c1ccc(C2NCCc4c2[nH]c2ccccc42)cc1)NCC3 (racemic)
growth at 10 µM (BT-549): 57 to 86.9%
growth at 0.1 µM (SNB-19 [2]): 99%
growth at 10 µM (CAKI-1): -51%
growth at 10 µM (OVCAR-8): -41.5%
GI50 (Hs-578T; read-out: GI50): 1.43 µM
CC50 (Hs-578T; read-out: LC50 (the source's name)): 11.5 µM
TGI (Hs-578T; read-out: TGI): 3.82 µM
GI50 (Hs-578T; read-out: pGI50 (converted)): 1.45 µM
CC50 (Hs-578T; read-out: pLC50 (the source's name) (converted)): 11.5 µM
TGI (Hs-578T; read-out: pTGI (converted)): 3.8 µM
growth at 100 µM (CCRF-CEM): 68%
growth at 0.01 µM (OVCAR-3): 100%
